Biological target: T1, WIZ protein (HiBit-WIZ fusion protein) (Homo sapiens, UniProt O95785+Q96SW2)
T1 construct: expressed in transfected cells
Assay: Quantification of WIZ protein levels in HiBit tag fusion protein assay (WIZ HiBit assay in 293T cells)
Format: cell-based
Conditions: for Dmax at 25 µM / remaining activity at 25 µM: HEK-293T, 293T cells; for Dmax at 25 µM: 100 − Amax, read-out: % degradation of WIZ (100 − Amax); for remaining activity at 25 µM: DMSO-normalized, curve-fitted percentage of WIZ-HiBit remaining at 25 uM, read-out: WIZ Amax; for DC50: WIZ HiBit assay in 293T cells, 10-point, 5-fold dose response, highest concentration 25 μM, about 18 hours, read-out: WIZ AC50
Summary of the method: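 HiBit-tagged WIZ (N-terminal tag, HSVTK promoter) stably expressed single-copy in 293T cells; 10-point 1:5 compound series, top 25 μM, ~18 h at 37 °C. Lytic HiBit/LgBit luminescence read; Amax = curve-fitted % WIZ-HiBit remaining at 25 μM, DMSO normalized to 100%.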

T1 sequence (O95785 whole entry, the tested form may be a part): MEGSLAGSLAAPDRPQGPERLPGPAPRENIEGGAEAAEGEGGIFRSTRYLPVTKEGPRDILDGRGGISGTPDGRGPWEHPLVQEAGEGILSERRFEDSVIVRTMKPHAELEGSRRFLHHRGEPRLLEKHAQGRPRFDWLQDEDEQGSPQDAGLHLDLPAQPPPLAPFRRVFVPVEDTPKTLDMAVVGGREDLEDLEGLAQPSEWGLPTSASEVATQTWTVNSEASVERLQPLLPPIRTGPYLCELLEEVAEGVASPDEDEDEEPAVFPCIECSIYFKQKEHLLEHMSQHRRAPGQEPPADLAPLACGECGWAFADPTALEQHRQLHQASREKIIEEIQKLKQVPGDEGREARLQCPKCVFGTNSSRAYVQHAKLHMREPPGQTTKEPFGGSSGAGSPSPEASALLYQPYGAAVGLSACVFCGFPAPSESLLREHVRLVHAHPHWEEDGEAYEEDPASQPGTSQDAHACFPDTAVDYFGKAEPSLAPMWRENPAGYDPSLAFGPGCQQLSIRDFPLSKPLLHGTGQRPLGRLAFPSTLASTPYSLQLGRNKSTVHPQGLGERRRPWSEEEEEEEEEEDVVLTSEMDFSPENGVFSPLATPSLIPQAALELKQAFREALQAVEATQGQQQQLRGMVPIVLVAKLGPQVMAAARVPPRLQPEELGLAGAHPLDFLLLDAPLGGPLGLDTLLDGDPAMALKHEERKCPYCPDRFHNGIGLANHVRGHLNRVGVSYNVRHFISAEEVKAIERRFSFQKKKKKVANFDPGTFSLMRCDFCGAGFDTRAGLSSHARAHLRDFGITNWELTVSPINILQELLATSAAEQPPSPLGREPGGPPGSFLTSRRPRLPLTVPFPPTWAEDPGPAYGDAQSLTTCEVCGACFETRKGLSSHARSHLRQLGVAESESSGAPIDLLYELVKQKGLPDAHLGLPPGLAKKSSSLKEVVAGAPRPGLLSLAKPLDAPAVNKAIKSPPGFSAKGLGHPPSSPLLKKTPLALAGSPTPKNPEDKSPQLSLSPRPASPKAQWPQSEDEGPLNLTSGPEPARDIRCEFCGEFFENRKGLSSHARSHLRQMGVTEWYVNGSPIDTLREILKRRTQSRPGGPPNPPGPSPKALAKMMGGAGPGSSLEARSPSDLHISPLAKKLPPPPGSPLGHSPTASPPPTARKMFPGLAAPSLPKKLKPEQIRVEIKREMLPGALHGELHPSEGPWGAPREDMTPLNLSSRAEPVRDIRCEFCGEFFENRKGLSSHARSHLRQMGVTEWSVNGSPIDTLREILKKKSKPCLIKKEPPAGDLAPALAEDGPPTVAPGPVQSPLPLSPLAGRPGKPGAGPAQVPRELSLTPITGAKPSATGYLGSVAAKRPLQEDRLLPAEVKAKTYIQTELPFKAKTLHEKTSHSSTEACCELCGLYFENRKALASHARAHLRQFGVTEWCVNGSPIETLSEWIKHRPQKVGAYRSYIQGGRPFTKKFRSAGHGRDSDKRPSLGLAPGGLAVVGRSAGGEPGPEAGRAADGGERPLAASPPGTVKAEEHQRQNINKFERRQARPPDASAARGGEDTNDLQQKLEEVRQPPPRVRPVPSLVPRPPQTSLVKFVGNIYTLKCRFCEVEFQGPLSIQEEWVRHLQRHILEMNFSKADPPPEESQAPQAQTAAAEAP
T1 sequence (Q96SW2 whole entry, the tested form may be a part): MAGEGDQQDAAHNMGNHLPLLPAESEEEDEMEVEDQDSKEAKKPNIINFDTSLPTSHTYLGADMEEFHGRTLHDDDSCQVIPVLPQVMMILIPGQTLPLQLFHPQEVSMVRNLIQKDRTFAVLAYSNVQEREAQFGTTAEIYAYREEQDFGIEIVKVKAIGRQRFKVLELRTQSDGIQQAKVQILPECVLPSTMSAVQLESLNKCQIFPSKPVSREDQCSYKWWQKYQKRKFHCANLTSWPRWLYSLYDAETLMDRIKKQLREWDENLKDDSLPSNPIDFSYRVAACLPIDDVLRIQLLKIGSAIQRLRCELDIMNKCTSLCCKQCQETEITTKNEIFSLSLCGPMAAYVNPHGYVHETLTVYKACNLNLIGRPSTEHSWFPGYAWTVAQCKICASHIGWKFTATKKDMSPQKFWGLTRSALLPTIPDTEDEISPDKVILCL
T1 sequence (Q16531 whole entry partner, the tested form may be a part): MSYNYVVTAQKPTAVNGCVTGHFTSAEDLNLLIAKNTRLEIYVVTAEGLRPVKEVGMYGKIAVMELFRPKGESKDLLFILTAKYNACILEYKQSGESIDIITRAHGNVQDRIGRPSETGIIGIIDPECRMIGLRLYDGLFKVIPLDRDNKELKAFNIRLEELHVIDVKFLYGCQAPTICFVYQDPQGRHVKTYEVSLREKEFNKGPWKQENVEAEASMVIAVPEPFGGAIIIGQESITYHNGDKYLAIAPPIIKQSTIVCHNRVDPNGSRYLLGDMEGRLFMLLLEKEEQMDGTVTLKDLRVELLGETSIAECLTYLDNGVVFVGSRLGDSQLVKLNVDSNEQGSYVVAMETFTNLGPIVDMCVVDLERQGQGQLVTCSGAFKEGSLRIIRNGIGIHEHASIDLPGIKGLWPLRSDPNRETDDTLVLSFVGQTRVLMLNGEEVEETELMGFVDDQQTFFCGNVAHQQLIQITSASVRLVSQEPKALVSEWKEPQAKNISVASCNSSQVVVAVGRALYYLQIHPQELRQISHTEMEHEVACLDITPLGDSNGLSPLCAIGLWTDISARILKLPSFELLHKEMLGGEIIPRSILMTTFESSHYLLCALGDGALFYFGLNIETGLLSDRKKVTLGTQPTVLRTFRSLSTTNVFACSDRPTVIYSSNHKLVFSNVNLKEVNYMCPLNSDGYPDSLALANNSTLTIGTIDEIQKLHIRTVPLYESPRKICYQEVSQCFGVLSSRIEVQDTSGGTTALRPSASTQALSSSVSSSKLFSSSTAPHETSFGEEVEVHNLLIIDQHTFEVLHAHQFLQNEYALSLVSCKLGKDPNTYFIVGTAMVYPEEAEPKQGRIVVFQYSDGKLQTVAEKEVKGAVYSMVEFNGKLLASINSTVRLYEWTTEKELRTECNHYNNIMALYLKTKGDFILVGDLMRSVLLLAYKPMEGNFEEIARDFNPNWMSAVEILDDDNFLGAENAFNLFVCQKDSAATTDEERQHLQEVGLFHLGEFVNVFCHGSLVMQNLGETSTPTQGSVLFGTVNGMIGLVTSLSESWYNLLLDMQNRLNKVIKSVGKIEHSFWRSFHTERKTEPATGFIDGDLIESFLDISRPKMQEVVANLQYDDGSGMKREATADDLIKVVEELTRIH

| SMILES | Dmax at 25 µM [%] | remaining activity at 25 µM [%] | DC50 [nM] |
| --- | --- | --- | --- |
| C[C@H]1CN(Cc2ccn3ncc(N4CCC(=O)NC4=O)c3c2)CCN1C(=O)C1CCCCC1 [Example 342, (S)-1-(5-((4-(cyclohexanecarbonyl)-3-methylpiperazin-1-yl)methyl)pyrazolo[1,5-a]pyridin-3-yl)dihydropyrimidine-2,4(1H,3H)-dione] | 37 | 63 | 916 |
| C[C@H]1CN(Cc2ccn3ncc(N4CCC(=O)NC4=O)c3c2)CCN1C(=O)C1CCCC1 [Example 343, (S)-1-(5-((4-(cyclopentanecarbonyl)-3-methylpiperazin-1-yl)methyl)pyrazolo[1,5-a]pyridin-3-yl)dihydropyrimidine-2,4(1H,3H)-dione] | 46 | 54 | 495 |
| C[C@H]1CN(Cc2ccn3ncc(N4CCC(=O)NC4=O)c3c2)CCN1C(=O)C1CCC1 [Example 344, (S)-1-(5-((4-(cyclobutanecarbonyl)-3-methylpiperazin-1-yl)methyl)pyrazolo[1,5-a]pyridin-3-yl)dihydropyrimidine-2,4(1H,3H)-dione] | 35 | 65 | 1070 |
| CC(C)CN1CCN(C(C)c2ccn3ncc(N4CCC(=O)NC4=O)c3c2)CC1 (stereo not drawn) [Example 345, 1-(5-(1-(4-isobutylpiperazin-1-yl)ethyl)pyrazolo[1,5-a]pyridin-3-yl)dihydropyrimidine-2,4(1H,3H)-dione] | 73 | 27 | 191 |
| CC(C)CN1CC[C@@H](Cc2ccn3ncc(-n4ccc(=O)[nH]c4=O)c3c2)C[C@@H]1C [Example 346, 1-(5-(((2S,4R)-1-isobutyl-2-methylpiperidin-4-yl)methyl)pyrazolo[1,5-a]pyridin-3-yl)pyrimidine-2,4(1H,3H)-dione] | 87 | 13 | 108 |
| Cc1cn(-c2cnn3ccc(C[C@@H]4CCN(CC(C)C)[C@@H](C)C4)cc23)c(=O)[nH]c1=O [Example 347, 1-(5-(((2S,4R)-1-isobutyl-2-methylpiperidin-4-yl)methyl)pyrazolo[1,5-a]pyridin-3-yl)-5-methylpyrimidine-2,4(1H,3H)-dione] | 89 | 11 | 378 |
| Cc1cn(-c2cnn3ccc(C[C@@H]4CCN(CC5CC5)[C@@H](C)C4)cc23)c(=O)[nH]c1=O [Example 348, 1-(5-(((2S,4R)-1-(cyclopropylmethyl)-2-methylpiperidin-4-yl)methyl)pyrazolo[1,5-a]pyridin-3-yl)-5-methylpyrimidine-2,4(1H,3H)-dione] | 86 | 14 | 400 |
| CC(C)CN1CC[C@@H](Cc2ccn3ncc(-n4cc(F)c(=O)[nH]c4=O)c3c2)C[C@@H]1C [Example 349, 5-fluoro-1-(5-(((2S,4R)-1-isobutyl-2-methylpiperidin-4-yl)methyl)pyrazolo[1,5-a]pyridin-3-yl)pyrimidine-2,4(1H,3H)-dione] | 86 | 14 | 118 |
| C[C@H]1C[C@H](Cc2ccn3ncc(-n4cc(F)c(=O)[nH]c4=O)c3c2)CCN1CC1CCC(F)(F)CC1 [Example 350, 1-(5-(((2S,4R)-1-((4,4-difluorocyclohexyl)methyl)-2-methylpiperidin-4-yl)methyl)pyrazolo[1,5-a]pyridin-3-yl)-5-fluoropyrimidine-2,4(1H,3H)-dione] | 90 | 10 | 28 |
| Cc1cn(-c2cnn3ccc(C[C@@H]4CCN(CC5CCC(F)(F)CC5)[C@@H](C)C4)cc23)c(=O)[nH]c1=O [Example 351, 1-(5-(((2S,4R)-1-((4,4-difluorocyclohexyl)methyl)-2-methylpiperidin-4-yl)methyl)pyrazolo[1,5-a]pyridin-3-yl)-5-methylpyrimidine-2,4(1H,3H)-dione] | 91 | 9 | 47 |
| C[C@H]1C[C@H](Cc2ccn3ncc(-n4cc(Cl)c(=O)[nH]c4=O)c3c2)CCN1CC1CCC(F)(F)CC1 [Example 352, 5-chloro-1-(5-(((2S,4R)-1-((4,4-difluorocyclohexyl)methyl)-2-methylpiperidin-4-yl)methyl)pyrazolo[1,5-a]pyridin-3-yl)pyrimidine-2,4(1H,3H)-dione] | 90 | 10 | 192 |
| COc1cn(-c2cnn3ccc(C[C@@H]4CCN(CC5CCC(F)(F)CC5)[C@@H](C)C4)cc23)c(=O)[nH]c1=O [Example 353, 1-(5-(((2S,4R)-1-((4,4-difluorocyclohexyl)methyl)-2-methylpiperidin-4-yl)methyl)pyrazolo[1,5-a]pyridin-3-yl)-5-methoxypyrimidine-2,4(1H,3H)-dione] | 70 | 30 | 9100 |
| CC(C)CN1CC[C@@H](Cc2ccn3ncc(-n4cc(C5CC5)c(=O)[nH]c4=O)c3c2)C[C@@H]1C [Example 354, 5-cyclopropyl-1-(5-(((2S,4R)-1-isobutyl-2-methylpiperidin-4-yl)methyl)pyrazolo[1,5-a]pyridin-3-yl)pyrimidine-2,4(1H,3H)-dione] | 0 | 100 | > 25000 |
| C[C@H]1C[C@H](Cc2ccn3ncc(-n4ccc(=O)[nH]c4=O)c3c2)CCN1C(=O)C1CC1 [Example 355, 1-(5-(((2S,4R)-1-(cyclopropanecarbonyl)-2-methylpiperidin-4-yl)methyl)pyrazolo[1,5-a]pyridin-3-yl)pyrimidine-2,4(1H,3H)-dione] | 82 | 18 | 183 |
| CCS(=O)(=O)N1CC[C@@H](Cc2ccn3ncc(-n4ccc(=O)[nH]c4=O)c3c2)C[C@@H]1C [Example 356, 1-(5-(((2S,4R)-1-(ethylsulfonyl)-2-methylpiperidin-4-yl)methyl)pyrazolo[1,5-a]pyridin-3-yl)pyrimidine-2,4(1H,3H)-dione] | 83 | 17 | 162 |
| CC(C)CN1CCN(Cc2ccn3ncc(-n4ccc(=O)[nH]c4=O)c3c2)C[C@@H]1C [Example 357, (S)-1-(5-((4-isobutyl-3-methylpiperazin-1-yl)methyl)pyrazolo[1,5-a]pyridin-3-yl)pyrimidine-2,4(1H,3H)-dione] | 85 | 15 | 124 |
| CC(C)CN1CCN(Cc2ccn3ncc(-n4cc(F)c(=O)[nH]c4=O)c3c2)C[C@@H]1C [Example 358, (S)-5-fluoro-1-(5-((4-isobutyl-3-methylpiperazin-1-yl)methyl)pyrazolo[1,5-a]pyridin-3-yl)pyrimidine-2,4(1H,3H)-dione] | 86 | 14 | 128 |
| Cc1cn(-c2cnn3ccc(CN4CCN(CC(C)C)[C@@H](C)C4)cc23)c(=O)[nH]c1=O [Example 359, (S)-1-(5-((4-isobutyl-3-methylpiperazin-1-yl)methyl)pyrazolo[1,5-a]pyridin-3-yl)-5-methylpyrimidine-2,4(1H,3H)-dione] | 89 | 11 | 365 |
| COc1cn(-c2cnn3ccc(CN4CCN(CC(C)C)[C@@H](C)C4)cc23)c(=O)[nH]c1=O [Example 360, (S)-1-(5-((4-isobutyl-3-methylpiperazin-1-yl)methyl)pyrazolo[1,5-a]pyridin-3-yl)-5-methoxypyrimidine-2,4(1H,3H)-dione] | 24 | 76 | > 25000 |
| CC(C)CN1CCN(Cc2ccn3ncc(-n4cc(C5CC5)c(=O)[nH]c4=O)c3c2)C[C@@H]1C [Example 361, (S)-5-cyclopropyl-1-(5-((4-isobutyl-3-methylpiperazin-1-yl)methyl)pyrazolo[1,5-a]pyridin-3-yl)pyrimidine-2,4(1H,3H)-dione] | 0 | 100 | > 25000 |
| Cc1cn(-c2cnn3ccc(CN4CCN(CC5CC5)[C@@H](C)C4)cc23)c(=O)[nH]c1=O [Example 362, (S)-1-(5-((4-(cyclopropylmethyl)-3-methylpiperazin-1-yl)methyl)pyrazolo[1,5-a]pyridin-3-yl)-5-methylpyrimidine-2,4(1H,3H)-dione] | 84 | 16 | 765 |
| C[C@H]1CN(Cc2ccn3ncc(-n4ccc(=O)[nH]c4=O)c3c2)CCN1CC1CCC(F)(F)CC1 [Example 363, (S)-1-(5-((4-((4,4-difluorocyclohexyl)methyl)-3-methylpiperazin-1-yl)methyl)pyrazolo[1,5-a]pyridin-3-yl)pyrimidine-2,4(1H,3H)-dione] | 85 | 15 | 109 |
